How the values were obtained:
Test in all cases: microbe, parasite or virus in culture
Assay type in all cases: cell-based
[1] = tested on: inherently resistant microorganisms; settings: S. aureus MRSA
[2] = tested on: microorganisms with acquired resistance; settings: for Peptide MIC: in µg/mL
[3] = tested on: vancomycin / teicoplanin resistant enterococci; settings: for Peptide MIC Alone: Amikacin section; for FIC: peptide + Amikacin

In the case of KKWWRRALQGLKTAGPAIQSVLNK [MBI 21A2], the “Peptide MIC + Amikacin” value [1] was 1 µg/mL, the “Peptide MIC + Piperacillin” value [1] was 64 µg/mL and the “Peptide MIC Alone” value ([1]; Amikacin section) was 2 µg/mL. The “Peptide MIC Alone” value ([1]; Piperacillin section) was over 128 µg/mL, the FIC ([1]; peptide + Amikacin) was 0.56 and the FIC ([1]; peptide + Piperacillin) was 0.25. For the same sequence, the “Gentamicin MIC + Peptide” value ([2]; A. calcoaceticus AC001) was 4 µg/mL, the “Peptide MIC + Gentamicin” value ([2]; A. calcoaceticus AC001) was 8 µg/mL and the “Peptide MIC Alone” value ([2]; A. calcoaceticus AC001, Gentamicin section) was 16 µg/mL. For the same sequence, the “Peptide MIC + Piperacillin” value ([2]; E. coli 1) was 2 µg/mL, the “Piperacillin MIC + Peptide” value ([2]; E. coli 1) was 8 µg/mL and the “Peptide MIC Alone” value ([2]; E. coli 1, Piperacillin section) was 4 µg/mL. The “Peptide MIC + Piperacillin” value ([2]; H. influenzae 1) was 64 µg/mL, the “Piperacillin MIC + Peptide” value ([2]; H. influenzae 1) was 4 µg/mL and the “Peptide MIC Alone” value ([2]; H. influenzae 1, Piperacillin section) was over 128 µg/mL. The “Peptide MIC + Piperacillin” value ([2]; H. influenzae 2) was 64 µg/mL, the “Piperacillin MIC + Peptide” value ([2]; H. influenzae 2) was 4 µg/mL and the “Peptide MIC Alone” value ([2]; H. influenzae 2, Piperacillin section) was over 128 µg/mL. The “Amikacin MIC + Peptide” value ([2]; P. aeruginosa PA022) was 16 µg/mL, the “Gentamicin MIC + Peptide” value ([2]; P. aeruginosa PA022) was 2 µg/mL and the “Peptide MIC + Amikacin” value ([2]; P. aeruginosa PA022) was 2 µg/mL. For the same sequence, the “Peptide MIC + Gentamicin” value ([2]; P. aeruginosa PA022) was 4 µg/mL, the “Peptide MIC Alone” value ([2]; P. aeruginosa PA022, Amikacin section) was 8 µg/mL and the “Peptide MIC Alone” value ([2]; P. aeruginosa PA022, Gentamicin section) was 8 µg/mL. For the same sequence, the “Ciprofloxacin MIC + Peptide” value ([2]; P. aeruginosa PA41) was 1 µg/mL, the “Peptide MIC + Ciprofloxacin” value ([2]; P. aeruginosa PA41) was 16 µg/mL and the “Peptide MIC Alone” value ([2]; P. aeruginosa PA41, Ciprofloxacin section) was 64 µg/mL. For the same sequence, the “Ciprofloxacin MIC + Peptide” value ([2]; P. aeruginosa PA77) was 0.25 µg/mL, the “Peptide MIC + Ciprofloxacin” value ([2]; P. aeruginosa PA77) was 32 µg/mL and the “Peptide MIC Alone” value ([2]; P. aeruginosa PA77, Ciprofloxacin section) was 64 µg/mL. For the same sequence, the “Peptide MIC” value ([2]; P. aeruginosa, combination with Ciprofloxacin) was 16, the “Peptide MIC” value ([2]; S. aureus, combination with Ciprofloxacin) was 4 and the “Peptide MIC” value ([2]; S. aureus, combination with Mupirocin) was 32. The “Peptide MIC + Piperacillin” value ([2]; S. maltophilia 3) was 16 µg/mL, the “Piperacillin MIC + Peptide” value ([2]; S. maltophilia 3) was 16 µg/mL and the “Peptide MIC Alone” value ([2]; S. maltophilia 3, Piperacillin section) was 32 µg/mL. For the same sequence, the “Peptide MIC + Piperacillin” value ([2]; S. maltophilia 11) was 64 µg/mL, the “Piperacillin MIC + Peptide” value ([2]; S. maltophilia 11) was 8 µg/mL and the “Peptide MIC Alone” value ([2]; S. maltophilia 11, Piperacillin section) was 128 µg/mL. The “Gentamicin MIC + Peptide” value ([2]; S. maltophilia SMA020) was 0.125 µg/mL, the “Peptide MIC + Gentamicin” value ([2]; S. maltophilia SMA020) was 8 µg/mL and the “Peptide MIC Alone” value ([2]; S. maltophilia SMA020, Gentamicin section) was 16 µg/mL. For the same sequence, the “Gentamicin MIC + Peptide” value ([2]; S. maltophilia SMA021) was 0.125 µg/mL, the “Peptide MIC + Gentamicin” value ([2]; S. maltophilia SMA021) was 8 µg/mL and the “Peptide MIC Alone” value ([2]; S. maltophilia SMA021, Gentamicin section) was 16 µg/mL. The “Peptide MIC + Piperacillin” value ([2]; S. marcescens 1) was 4 µg/mL, the “Piperacillin MIC + Peptide” value ([2]; S. marcescens 1) was 16 µg/mL and the “Peptide MIC Alone” value ([2]; S. marcescens 1, Piperacillin section) was over 128 µg/mL. It also gave an FIC ([2]; peptide + Amikacin, P. aeruginosa PA022) of 0.50, an FIC ([2]; peptide + Ciprofloxacin, P. aeruginosa PA41) of 0.50 and an FIC ([2]; peptide + Ciprofloxacin, P. aeruginosa PA77) of 0.63. For the same sequence, the FIC ([2]; peptide + Gentamicin, A. calcoaceticus AC001) was 1.00, the FIC ([2]; peptide + Gentamicin, P. aeruginosa PA022) was 0.56 and the FIC ([2]; peptide + Gentamicin, S. maltophilia SMA020) was 0.50. The FIC ([2]; peptide + Gentamicin, S. maltophilia SMA021) was 0.50, the FIC ([2]; peptide + Piperacillin, E. coli 1) was 0.53 and the FIC ([2]; peptide + Piperacillin, H. influenzae 1) was 0.31. For the same sequence, the FIC ([2]; peptide + Piperacillin, H. influenzae 2) was 0.28, the FIC ([2]; peptide + Piperacillin, S. maltophilia 3) was 0.75 and the FIC ([2]; peptide + Piperacillin, S. maltophilia 11) was 0.75. The FIC ([2]; peptide + Piperacillin, S. marcescens 1) was 0.27, the “Amikacin MIC + Peptide” value ([3]; E. faecalis EFS008) was 8 µg/mL and the “Peptide MIC + Amikacin” value ([3]; E. faecalis EFS008) was 16 µg/mL. The “Peptide MIC Alone” value ([3]; E. faecalis EFS008) was over 128 µg/mL, the “Amikacin MIC + Peptide” value ([3]; E. faecium EFM020) was 2 µg/mL and the “Peptide MIC + Amikacin” value ([3]; E. faecium EFM020) was 64 µg/mL. For the same sequence, the “Peptide MIC Alone” value ([3]; E. faecium EFM020) was 128 µg/mL, the FIC ([3]; E. faecalis EFS008) was 0.19 and the FIC ([3]; E. faecium EFM020) was 0.56.

— US20020035061A1, “COMPOSITIONS AND METHODS FOR TREATING INFECTIONS USING CATIONIC PEPTIDES ALONE OR IN COMBINATION WITH ANTIBIOTICS” (priority 1996, published 2002)
